Assay results from patent US8575186B2, “Epiminocycloalkyl[b] indole derivatives as serotonin sub-type 6 (5-HT6) modulators and uses thereof” (Albany Molecular Research, Inc., priority 2009, dated 2013).
Where two headings read alike, the source gives them in different places.

Tests used:
[1] = target: human 5-HT6 receptor (Homo sapiens (Human), UniProt P50406); assay: radioligand binding assay (SPA format), [N-methyl-3H]-LSD; settings: read-out: human 5HT6 Ki, human 5-HT6 receptor membranes, 10 nM [3H]-LSD
[2] = target: 5HT6 receptor (Rattus norvegicus (Rat), UniProt P31388); assay: ex vivo receptor occupancy measurements; format: in vivo; settings: oral dosing at 30 mg/kg, Sprague-Dawley rats
Procedure: This table illustrates representative compounds tested for 5HT6 affinity in the human binding assay. […] Example 158 had 42% occupancy of the 5HT6 receptor after oral dosing at 30 mg/kg using ex vivo receptor occupancy measurements in Sprague-Dawley rats.

Sequence of human 5-HT6 receptor (P50406 whole entry): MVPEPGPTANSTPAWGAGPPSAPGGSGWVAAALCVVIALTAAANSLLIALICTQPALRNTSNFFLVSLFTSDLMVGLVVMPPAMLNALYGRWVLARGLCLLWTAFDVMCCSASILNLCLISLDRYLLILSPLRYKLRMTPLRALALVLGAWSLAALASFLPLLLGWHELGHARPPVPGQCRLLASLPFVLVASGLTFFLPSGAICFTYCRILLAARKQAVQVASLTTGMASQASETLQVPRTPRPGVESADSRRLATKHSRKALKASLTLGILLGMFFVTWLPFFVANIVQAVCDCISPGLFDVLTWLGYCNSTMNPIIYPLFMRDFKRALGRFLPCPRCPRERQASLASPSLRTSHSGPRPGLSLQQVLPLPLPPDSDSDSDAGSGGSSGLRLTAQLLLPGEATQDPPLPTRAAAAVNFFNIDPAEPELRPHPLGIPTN
Sequence of 5HT6 receptor (P31388 whole entry): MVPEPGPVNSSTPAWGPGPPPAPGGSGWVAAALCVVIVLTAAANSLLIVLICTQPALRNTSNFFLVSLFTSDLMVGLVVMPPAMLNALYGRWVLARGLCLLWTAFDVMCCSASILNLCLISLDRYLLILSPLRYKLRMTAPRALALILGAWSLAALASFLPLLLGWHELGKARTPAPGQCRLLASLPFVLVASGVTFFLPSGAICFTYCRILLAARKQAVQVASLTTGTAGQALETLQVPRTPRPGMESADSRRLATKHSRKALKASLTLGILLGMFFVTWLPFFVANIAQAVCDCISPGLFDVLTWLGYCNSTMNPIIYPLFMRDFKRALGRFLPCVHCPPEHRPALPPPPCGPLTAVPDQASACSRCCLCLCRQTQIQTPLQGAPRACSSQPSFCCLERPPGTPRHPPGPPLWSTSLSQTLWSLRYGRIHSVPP

Structure (SMILES) | melting point | Ki [1] [nM] | Ki ([1]; hydrochloride) [nM] | receptor occupancy at 30 mg/kg [2] [%]
Cc1cc(S(=O)(=O)c2cccc(C(F)(F)F)c2)cc2c3c(n(C)c12)CC1CCC3N1.Cl (stereo not shown) [Example 75, 2-(3-Trifluoromethyl-phenyl)sulfonyl-4,5-dimethyl-5,6,7,8,9,10-hexahydro-7,10-epiminocyclohepta[b]indole hydrochloride] | 227 to 229 °C | 3.6 | – | –
Cc1cn(S(=O)(=O)c2ccc3c(c2)c2c(n3C)CC3CCC2N3)c2ccccc12.Cl (stereo not shown) [Example 68, 2-[1-(3-Methyl)-indole]sulfonyl-5-methyl-5,6,7,8,9,10-hexahydro-7,10-epiminocyclohepta[b]indole hydrochloride] | 212 to 215 °C | – | 1.2 | –
COc1ccc(S(=O)(=O)c2ccc3c(c2)c2c(n3C)CC3CCC2N3)cc1.Cl (stereo not shown) [Example 31, 2-(4-Methoxyphenyl)sulfonyl-5-methyl-5,6,7,8,9,10-hexahydro-7,10-epiminocyclohepta[b]indole hydrochloride] | 210 to 212 °C | 44 | – | –
Cl.Cn1c2c(c3cc(S(=O)(=O)c4cc(F)cc(F)c4)ccc31)C1CCC(C2)N1 (stereo not shown) [Example 55, 2-(3,5-Difluorophenyl)sulfonyl-5-methyl-5,6,7,8,9,10-hexahydro-7,10-epiminocyclohepta[b]indole hydrochloride] | 230 to 235 °C (dec.) | 8.5 | – | –
CNc1cccc(S(=O)(=O)c2ccc3c(c2)c2c(n3C)CC3CCC2N3)c1.Cl (stereo not shown) [Example 46, 2-[(3-N-Methylamino)phenyl]sulfonyl-5-methyl-5,6,7,8,9,10-hexahydro-7,10-epiminocyclohepta[b]indole hydrochloride] | 208 to 212 °C (dec.) | 6.5 | – | –
Cl.Cn1c2c(c3cc(S(=O)(=O)c4cncc(Cl)c4)ccc31)C1CCC(C2)N1 (stereo not shown) [Example 58, 2-[3-(5-Chloro)-pyridine]sulfonyl-5-methyl-5,6,7,8,9,10-hexahydro-7,10-epiminocyclohepta[b]indole hydrochloride] | 202 to 205 °C (dec.) | 44 | – | –
Cc1cc(S(=O)(=O)c2cncnc2)cc2c3c(n(C)c12)CC1CCC3N1.Cl (stereo not shown) [Example 78, 2-(5-Pyrimidine)sulfonyl-4,5-dimethyl-5,6,7,8,9,10-hexahydro-7,10-epiminocyclohepta[b]indole] | 226 to 228 °C | 794 | – | –
Cn1c2c(c3cc(S(=O)(=O)c4cccc(Cl)c4)ccc31)C1CCC(C2)N1 (stereo not shown) [Example 158] | – | 1.9 | – | 42
